In general, pKd refers to the negative decadic logarithm of the Kd, by convention in mol/L.

Here are results for four compounds from patent US12582717B2, “Protein based excipient for active pharmaceutical ingredients” (ROUSSELOT B.V., priority 2016, dated 2026).

pKd: −log10 of the molar value. In brackets after ≈: the same amount, converted by molar mass. Several values for one entry are separate records, joined by “and”; a condition that tells them apart may be missing. Equal entries are not always repeated. Where two headings read alike, the source gives them in different places.

A short description of data set [1]: Solubility statements in the description. The class given is physicochemical.
A short description of data set [2]: Dissolution of solvent-cast protein films (Example 1). The data set is classed as physicochemical. To be noted: film cast from 5% solution in formic acid; 37° C., 0.1N HCl pH 1.5 for 90 minutes, then pH 6.8 up to 330 minutes. Here is the method:
In the following experiment 5% solutions of various proteins were dissolved in formic acid and solvent-casted into protein films. The proteins were selected from gelatin, BSA (albumin), pea, soy, whey and zein (corn). The protein films were then dissolved at 37° C. in 0.1N HCl with a pH of 1.5 for 90 minutes, after which the pH was adjusted to 6.8 over a time period up to 330 minutes.
The dissolution of the protein films was evaluated using spectrophotometry (absorbance at 280 nm), and plotted as a function of time.

Data set [3] in a line: Equilibrium solubility of Flubendazole in FaSSGF (RP-HPLC). The class given is physicochemical. To be noted: FaSSGF (fasted state simulated gastric fluid), pH 1.6, fassgf or other biorelevant, thermodynamic from solid; FaSSGF (1.6 pH), excess Flubendazole rotated up to 72 hours; read-out: equilibrium solubility in FaSSGF medium. As for the experimental part: The dissolution profile and supersaturation state (i.e., the available concentration) was tested using a dissolution media which simulates the juice present in the human stomach before (i.e. fasted state) eating food; namely FaSSGF (1.6 pH) available from Bio-relevant®. A suitable method for determining the concentration is Reversed phase High-performance liquid chromatography (RP-HPLC), which separates molecules based on hydrophobicity causing different retention times as they flow out the column. The further working principles of RP-HPLC are known in the art. The RP-HPLC set-up used an Eclipse Zorbax Agilent 5 μm (4.6×150 mm) column with a flow Rate of 1 ml/min. The injection volume was 20 μl with the mobile phase containing ACN/TFA 0.1% (55:45) and an elution time of Flubendazole about ±1.9 min. The wavelength for measurements was set at 280 nm.
Prior to the experiments, the solubility of Flubendazole in FaSSGF was determined to serve as the baseline reference value. The reference solution was prepared by bringing an excess of Flubendazole in 8 ml FaSSGF solution. This solution was rotated during 72 hours and a 1 ml sample was taken every 24 hours. These reference samples were filtered through a Polytetrafluoroethylene (PTFE) 0.45 μm filter to determine the concentration of Flubendazole through the tested RP-HPLC method. […]

The target in a further data set is T1, BSA (Bos taurus, UniProt P02769).
T1 construct: from tissue; host or cells: bovine origin (tissue or fluid not specified)
T1 sequence (P02769 25-607): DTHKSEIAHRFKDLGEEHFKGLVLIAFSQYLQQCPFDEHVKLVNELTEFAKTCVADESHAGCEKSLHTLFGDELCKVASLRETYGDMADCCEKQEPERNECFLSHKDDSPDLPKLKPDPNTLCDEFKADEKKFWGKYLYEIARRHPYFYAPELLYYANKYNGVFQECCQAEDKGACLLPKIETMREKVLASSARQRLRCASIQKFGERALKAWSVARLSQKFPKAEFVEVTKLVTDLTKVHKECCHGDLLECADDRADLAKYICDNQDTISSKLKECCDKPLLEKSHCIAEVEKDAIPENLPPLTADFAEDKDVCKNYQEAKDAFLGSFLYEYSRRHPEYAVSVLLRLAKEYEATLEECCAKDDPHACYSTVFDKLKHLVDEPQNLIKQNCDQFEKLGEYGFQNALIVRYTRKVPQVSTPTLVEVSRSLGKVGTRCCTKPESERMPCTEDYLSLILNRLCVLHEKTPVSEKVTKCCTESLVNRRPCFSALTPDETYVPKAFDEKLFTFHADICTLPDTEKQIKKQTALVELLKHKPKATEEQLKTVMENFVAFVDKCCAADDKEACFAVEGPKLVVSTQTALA
The data set is described as follows: Tryptophan quenching binding of Flubendazole to BSA. Further details: species or system bovine. To be noted: read-out: dissociation constant Kd. The source says: For the following experiment the binding strength of a protein based excipient to a model API was verified. For the purposes of this experiment, BSA was the protein source, Flubendazole was used as the model API, formic acid served as the solvent and spray drying was chosen as the drying method.

Take `CCCS(=O)(=O)Nc1ccc(F)c(C(=O)c2c[nH]c3ncc(-c4ccc(Cl)cc4)cc23)c1F` [Vemurafenib]: the solubility in methanol result in data set [1] is recorded as “does not dissolve”.

Regarding gelatin, the “dissolution level of protein film” value in data set [2] is “(near) complete dissolution”.

`COC(=O)Nc1nc2cc(C(=O)c3ccc(F)cc3)ccc2[nH]1` [Flubendazole]: in data set [3], the solubility thermodynamic at 72 h was 11.2 µg/mL (≈ 35.7 µM). Moreover, the negative-log Kd (pKd) on BSA (pH 1.0) was 3.63 and ~3.63; at BSA (pH 4.0), 3.88 and ~3.88; at BSA (pH 7.0), 3.94 and ~3.94.

Take Zein: in data set [2], the “dissolution level of protein film” value is reported as “about 10%”.
